Compared with `CCCCNC(=O)NS(=O)(=O)CCc1c(C2CC2)nn(C)c1-n1ccc2cc(Cl)cnc21`, `CNS(=O)(=O)c1ccccc1Nc1nc(Nc2ccc3c(c2)CCCC(=O)N3CC(=O)OC)ncc1Cl` is higher in melting point: 167 to 168 °C for the first, 237 to 239 °C for the second.

First: O=C(O)Cc1ccc(CCNC(=O)C2Cc3ccccc3N2S(=O)(=O)c2ccc(-c3cccc(C(F)(F)F)c3)cc2)cc1 (stereo not drawn)
Second: CC(=O)Nc1nc(CCc2ccc(CON3C(=O)c4ccccc4C3=O)cc2)cs1
The melting point of the first is lower: 110 °C for the first, 225 to 226 °C for the second.

First: CCCC(CCC)NC(=O)c1ccc2oc(CCl)nc2c1
Second: CCOC(=O)c1c(CC)nn2ccc3oc(C)cc3c12
The melting point of the first is higher: 108 to 109 °C for the first, 89 to 90 °C for the second.

First: CS(=O)CCC1=NS(=O)(=O)NC(N)=N1 (stereo not drawn)
Second: CCCc1c[nH]c(=O)[nH]c1=O
The melting point of the first is lower: 180 to 182 °C for the first, 286 to 287 °C for the second.

Compared with `COC(=O)CN(C)C(=O)c1c(OC)ccc2c(Br)c(OC)ccc12`, `COc1ccc(C(=CC(=O)N2CCOCC2)c2ccc(NC(=O)c3ccc(Cl)cc3)cc2)cc1OC` is higher in melting point: 142 to 144 °C for the first, 197 to 207 °C for the second.

`C=C[C@H](C)[C@@](N)(C(N)=O)c1ccccc1` (relative stereo) and `CN(CCCC(C(N)=O)(c1ccccc1)c1ccccc1)CCc1ccc2c(c1)OCO2` cannot be ordered by melting point: 90 °C for the first, 89 to 90 °C for the second.

First: O=C(O)COc1cc2c(c(Cl)c1Cl)C(O)C1(CCCC1)C2 (stereo not drawn)
Second: COc1cc(/C=C/C(=O)CC(=O)C2(C)CC2)ccc1O
The melting point of the first is higher: 135 °C for the first, 78 to 80 °C for the second.

First: CCOC(=O)C(=O)Nc1ccc(S(N)(=O)=O)cc1[N+](=O)[O-]
Second: CCONS(=O)(=O)c1ccc(C)cc1
The melting point of the first is higher: 193 to 195 °C for the first, 94 to 95 °C for the second.

First: Oc1ccc(Nc2nc(NCc3ccco3)nc(Nc3cccc(Oc4ccccc4)c3)n2)cc1
Second: COc1ccccc1-c1cc2c(Nc3cccc(Cl)c3)ncnc2[nH]1
The melting point of the first is lower: 80 to 83 °C for the first, 221 °C for the second.

First: CC(=O)NCC1Cc2cccc3cccc1c23 (stereo not drawn)
Second: O=C(NC(=O)c1ccccc1)NC1CCCc2ccccc21 (stereo not drawn)
The melting point of the first is lower: 145 °C for the first, 166 to 169 °C for the second.

Compared with `CC(C)(C)COc1ccc(NC(=O)c2cccn2-c2ccc(F)cc2)cc1C#N`, `N#Cc1cc(C2CCCO2)nn1-c1ccc(NC(=O)c2ccncc2F)cc1` (stereo not drawn) is lower in melting point: 181 to 182 °C for the first, 160 to 162 °C for the second.

Compared with `CCOC(=O)C1(F)C(=O)NC(=O)NC1ON=C1CCC1` (stereo not drawn), `CCn1cc(C(=O)O)c(=O)c2c1CCCC2=O` is higher in melting point: 188 to 189 °C for the first, 212 to 214 °C for the second.

First: CCOc1ccc2c(c1)n(C1CCCCC1)c(=O)n2S(=O)(=O)c1ccc(C(=O)NC(C)(C)C)cc1OC
Second: COC(=O)c1cn(-c2ccc(O)cc2C)c(C2CCNCC2)cc1=O
The melting point of the first is higher: 252 °C for the first, 226 to 228 °C for the second.

First: COC(=O)c1ccc(S(C)(=O)=O)c(C2=NOC(C)C2)c1Cl (stereo not drawn)
Second: COC(=O)C1=Cc2cc(-c3ccc(OC(C)C)cc3)ccc2S(=O)(=O)CC1
The melting point of the first is lower: 130 to 135 °C for the first, 140 to 142 °C for the second.

First: CC(C)(C)C(NC(=O)C(=O)Nc1cccnc1)NC(=O)c1ccc(Cl)cc1 (stereo not drawn)
Second: Cc1c(C(C)CC(=O)O)n(Cc2ccc(Cl)cc2)c2ccc(O)cc12 (stereo not drawn)
The melting point of the first is higher: 168 to 170 °C for the first, 162 °C for the second.

Compared with `N#Cc1nn(-c2c(Cl)cc(C(F)(F)F)cc2Cl)cc1C=O`, `C#CCn1cc(C#N)c(C=O)c1` is lower in melting point: 168 °C for the first, 114 °C for the second.

First: COc1cc(Nc2c(C#N)cnc3cc(-c4ccc(CCl)cc4)ccc23)c(Cl)cc1Cl
Second: COc1ccc(C(=O)Cc2c(Cl)cncc2Cl)c2c1OC(c1ccccc1)(c1ccccc1)O2
The melting point of the first is higher: 236 to 239 °C for the first, 156 to 157 °C for the second.

Compared with `CN(C)c1ccc2c(c1)C(=O)CC(c1ccccc1O)=N2`, `CC(C)OC(=O)c1nnc2n1-c1ccc(Cl)cc1C(c1ccccc1Cl)=NC2` is lower in melting point: 296 to 298 °C for the first, 229 to 230 °C for the second.

First: COc1ccc2nc(CO)n(C)c2n1
Second: COCC(=O)Nc1nc2ccccc2s1
The melting point of the first is higher: 138 to 140 °C for the first, 99 to 100 °C for the second.

First: O=[N+]([O-])c1oc2ccccc2c1-n1ccnc1
Second: FC(F)(F)c1cc(Nc2nc3ccccc3o2)ccc1Br
The melting point of the first is lower: 147 to 149 °C for the first, 211 to 212 °C for the second.

First: OC1(c2cncc(Br)c2)CCCC1
Second: Nc1ccccc1OC1CCCC1
The melting point of the first is lower: 74 °C for the first, 87 to 87.5 °C for the second.

Compared with `CC(C)(C)c1ccnc(Oc2ccc(CCNc3ncnc4nccnc34)cc2)c1`, `COc1ccc(C=CC(=O)CCCCc2ccccc2)cc1O` is lower in melting point: 156 to 157 °C for the first, 70 to 75 °C for the second.

First: CC(=O)Nc1cc(Br)c(O)c(Br)c1
Second: C=C(CN(C)C)c1ccc(NC(=O)NC)cc1
The melting point of the first is higher: 155 to 156 °C for the first, 123 to 124 °C for the second.

Compared with `CC1(C)Cc2c(c(N3CCOCC3)nc3sc4c(N(CCO)CCN5CCOCC5)ncnc4c23)CO1`, `Nc1cccnc1N1CCN(C(=O)c2ccc(C(=O)O)cn2)CC1` is higher in melting point: 112 to 113 °C for the first, 137 to 140 °C for the second.

First: COC(=O)[C@H](Cc1cc(Cl)c(OCCc2coc(-c3cccc(OCc4ccccc4)c3)n2)c(Cl)c1)NC(=O)C(F)(F)F
Second: CCOP(=O)(/C=C/c1cn(-c2ccccc2)nc1OCc1ccc(OCc2nc(-c3ccc(C(N)=O)cc3)oc2C)c(OC)c1)OCC
The melting point of the first is lower: 111 to 113 °C for the first, 146 to 148 °C for the second.

First: CN1Cc2c(C(=O)OC(C)(C)C)ncn2-c2ccncc2C1=O
Second: CC(C)(C)OC(=O)N1CC[C@H](c2ccc(OCC3OCCO3)cc2)[C@@H](O)C1 (racemic)
The melting point of the first is higher: 214 to 215 °C for the first, 136 to 137 °C for the second.

First: CSc1nc(-c2ccc(Cl)cc2)c(CCC(=O)O)o1
Second: O=C(O)CN(C(=O)CCc1nc2c(F)c(F)cc(F)c2s1)c1ccccc1
The melting point of the first is higher: 183 to 184 °C for the first, 121 to 124 °C for the second.

First: N#CC(C#N)=C1Sc2nc3ccc(C#N)cc3nc2S1
Second: CCCc1cc(OC)c(OC)cc1Cc1cnc(N)nc1N
The melting point of the first is higher: 278 to 281 °C for the first, 166 to 167 °C for the second.

Compared with `CN1C(=O)SC(C)(S(=O)(=O)c2cccc3c(Br)cccc23)C1=O` (stereo not drawn), `COC(=O)CCn1c(=O)n(CCN2CCN(c3ccccc3)CC2)c(=O)c2cscc21` is lower in melting point: 160 to 161 °C for the first, 133 to 134 °C for the second.

First: O=C(Nc1ccc(OC(F)(F)F)cc1)NC1CCN(C(=O)c2ccncc2)CC1
Second: Cc1c(NC(=O)c2ccc(-c3ccc(F)cc3)cc2)ccc2cc(CN3CCC(CC(=O)N(C)C)CC3)cnc12
The melting point of the first is higher: 210 to 212 °C for the first, 200 to 201 °C for the second.

First: Nc1cc(N2CCNCC2)ccc1[N+](=O)[O-]
Second: O=C(O)C1CCc2cc([N+](=O)[O-])ccc2O1 (stereo not drawn)
The melting point of the first is lower: 159 to 160 °C for the first, 180 °C for the second.

First: CC(C)(C)OC(=O)CS
Second: CC(C)(C)OC(=O)N1CCOC[C@H]1CC(=O)O
The melting point of the first is lower: 72 °C for the first, 82 °C for the second.

First: CC(=O)O[C@@](Cn1cncn1)(c1ccccc1F)[C@@H](C)n1ccnn1
Second: CC(C)[C@H](O)[C@@H](CCCCOc1ccc(Cl)cc1Cl)n1nc[nH]c1=S (racemic)
The melting point of the first is higher: 133 to 134 °C for the first, 118 °C for the second.

Compared with `CC(C)(C)c1cc(I)c2oncc2c1`, `CCCCCCCCCCCc1nc(NC(=O)Nc2c(C(C)C)cccc2C(C)C)n[nH]1` is higher in melting point: 106 to 109 °C for the first, 168 to 170 °C for the second.

First: COc1ccc(N2CCN(c3ccc(-n4c(C)nnc4S)cc3)CC2)cc1
Second: c1ccc(CC23CCN(CC2)CC3)cc1
The melting point of the first is higher: 260 °C for the first, 48 °C for the second.

Compared with `COc1cccc([C@H](O)C[C@@H]2CCCN2C)c1` (relative stereo), `S=C(SSC(=S)c1ccccc1)c1ccccc1` is higher in melting point: 79 to 82 °C for the first, 89 to 91 °C for the second.

Work on `C#CCOCC1CCC(COCC#C)CC1` (stereo not drawn) yielded a melting point of 56 to 60 °C.

Reference: a melting point compilation (Tetko et al.; mined from patent text by program, amines drawn as free bases though some values may be those of a salt)
